The nature of series [1]: Cytotoxicity against HEL cells assessed as alteration in cell morphology. Type of series: cell-based. To be noted: human.
For series [2], the system named is Human alphaherpesvirus 3. Nature of the series: Antiviral activity against TK+ VZV YS in HEL cells after 5 days. The format is functional, organism-based. The settings on record: Human alphaherpesvirus 3, YS, 120 h.
For series [3], the system named is Human alphaherpesvirus 3. Nature of the series: Antiviral activity against TK+ VZV OKA in HEL cells after 5 days. Type of series: functional, organism-based. To be noted: Human alphaherpesvirus 3, OKA, 120 h.
The subject of series [4] is Human alphaherpesvirus 3. The series is described as follows: Antiviral activity against TK- VZV 07 in HEL cells after 5 days. The format is functional, organism-based. The settings on record: Human alphaherpesvirus 3, 07, HEL, 120 h.
A short description of series [5]: Inhibition of VZV-TK catalyzed dThd phosphorylation. Further details: species or system Human alphaherpesvirus 3.
Series [6] in a line: Cytotoxicity against HEL cells. The format is cell-based. To be noted: human.
The test system of series [7] is Human alphaherpesvirus 3. The series is described as follows: Antiviral activity against TK- VZV YS in HEL cells after 5 days. Type of series: functional, organism-based. The settings on record: Human alphaherpesvirus 3, YS, 120 h.

The results in this text go back to ChEMBL document CHEMBL1138364 (J Med Chem, 2007).

One may read the EC50 as the midpoint of the concentration-response curve. Higher therefore signals weaker potency. As a reminder, the IC50 is the point on the concentration scale where inhibition reaches its midpoint. As usually defined, the CC50 is the concentration that lowers cell viability or growth by half. Read a low CC50 as greater toxicity to the cells.

As for `CCCCCc1ccc(-c2cc3cn([C@@H]4C[C@H](CO)[C@@H](O)C4)c(=O)nc3o2)cc1`, the MCC in series [1] is > 50 µM. Further, the half-maximal effective concentration (EC50) with Human alphaherpesvirus 3 [2] was 280 nM; with Human alphaherpesvirus 3 [3] it was 490 nM; in the series with Human alphaherpesvirus 3 [4] it was > 50000 nM. Also, in series [5], inhibition was half-maximal at 44000 nM (IC50). In addition, the CC50 in series [6] was > 50000 nM.

`Nc1nc2c(ncn2COCCO)c(=O)[nH]1` [ACYCLOVIR]: the MCC in series [1] was > 200 µM. In addition, the CC50 in series [6] was > 200000 nM.

Turning to `O=c1[nH]c(=O)n([C@H]2C[C@H](O)[C@@H](CO)O2)cc1/C=C/Br` [BRIVUDINE], the MCC in series [1] is > 200 µM. In addition, the EC50 in the series with Human alphaherpesvirus 3 [2] was 5 nM; in the series with Human alphaherpesvirus 3 [3] it was 5 nM; in the series on Human alphaherpesvirus 3 [4], > 200000 nM; in the series on Human alphaherpesvirus 3 [7] it was > 200000 nM. Inhibition in series [5] was half-maximal at 1300 nM (IC50). Moreover, the CC50 in series [6] is > 200000 nM.

For the compound `CCCCCc1ccc(-c2cc3cn([C@H]4C[C@H](O)[C@@H](CO)O4)c(=O)nc3o2)cc1` [CF1743], in series [1], the MCC was > 20 µM.
